From patent publication US20120088664A1, “Antifungal 1,2,4-triazolyl derivatives having a 5-sulfur subtituent” (BASF SE, priority 2009, published 2012) come the findings set out here.

The subject of one data set is Phytophthora infestans. The format is in vivo. The note with it: 300 ppm active compound, tomato plants sprayed to run-off, inoculated next day, assessed after 6 days; untreated plants 90% infected.
For another data set, the system named is Botrytis cinerea. Briefly: Preventative control of grey mold (Botrytis cinerea) on leaves of green pepper (greenhouse test). As to conditions: 300 ppm active compound, green pepper seedlings sprayed to run-off, inoculated next day, assessed after 5 days; untreated plants 90% infected. The format is in vivo.

Take `CC(C)(C)C(O)(CCc1ccc(Cl)cc1Cl)Cn1nc[nH]c1=S` (stereo not shown) [Example 1, 1-(2-(2,4-dichlorophenethyl)-2-hydroxy-3,3-dimethylbutyl)-1H-1,2,4-triazole-5(4H)-thione]: the “infection (fungal attack on the leaves visually assessed as % diseased leaf area)” value in the data set on Phytophthora infestans stood at 15%.

In the case of `CC(C)(C)C(O)(CCc1ccc(F)cc1F)Cn1nc[nH]c1=S` (stereo not shown) [Example 2, 1-(2-(2,4-Difluorophenethyl)-2-hydroxy-3,3-dimethylbutyl)-1H-1,2,4-triazole-5(4H)-thione], the melting point fell in the range of 130 to 132 °C.

As for `CC(C)(C)C(O)(CCc1ccc(Cl)c(Cl)c1)Cn1nc[nH]c1=S` (stereo not shown) [Example 3, 1-(2-(3,4-Dichlorophenethyl)-2-hydroxy-3,3-dimethylbutyl)-1H-1,2,4-triazole-5(4H)-thione], the melting point is 155 to 157 °C.

`CC(C)(C)C(O)(CCc1ccc(F)cc1)Cn1nc[nH]c1=S` (stereo not shown) [Example 4, 1-(2-(4-Fluorophenethyl)-2-hydroxy-3,3-dimethylbutyl)-1H-1,2,4-triazole-5(4H)-thione] had a melting point of 134 to 135 °C. For the same compound, in the data set on Botrytis cinerea, the “infection (fungal attack on the leaves visually assessed as % diseased leaf area)” value is given as 7%.

The compound `Cc1ccc(CCC(O)(Cn2nc[nH]c2=S)C(C)(C)C)cc1` (stereo not shown) [Example 5, 1-(2-hydroxy-3,3-dimethyl-2-(4-methylphenethyl)butyl)-1H-1,2,4-triazole-5(4H)-thione] showed a melting point of 137 to 138 °C.

The compound `CC(C)(C)C(O)(CCc1ccc(C(F)(F)F)cc1)Cn1nc[nH]c1=S` (stereo not shown) [Example 6, 1-(2-Hydroxy-3,3-dimethyl-2-(4-(trifluoromethyl)phenethyl)butyl)-1H-1,2,4-triazole-5(4H)-thione] returned a melting point of 139 to 140 °C.

As usually defined, the melting point is the temperature, or range, at which the solid turns liquid.
